# Reference: patent US10080751B2, “Systems and methods for treating bacterial infection” (priority 2016, dated 2018)
# Like-named read-outs stand apart in the source and are kept apart here.
# Assays:
# E. faecalis = assay: MIC with/without bovine pulmonary surfactant, E. faecalis; assay type: cell-based, Enterococcus faecalis; details: for MICRZ, Resazurin: +BPS: 2.5% v/v BPS; for MICRZ, Resazurin / MIC: no BPS; for MIC: Enterococcus faecalis, read-out: MIC, CLSI
# Procedure: (§1) Clinical isolates were identified by the submitting laboratories and confirmed by JMI Laboratories using standard bacteriologic algorithms and methodologies, including Matrix-Assisted Laser Desorption Ionization-Time Of Flight Mass Spectrometry (MALDI-TOF MS). When necessary, MALDI-TOF MS was performed using the Bruker Daltonics MALDI Biotyper (Billerica, Mass., USA), following manufacturer's instructions. Isolates selected were bacterial species commonly associated with pneumonia. […] 2.2 Susceptibility testing
# (§2) Antibacterial susceptibility testing was measured by JMI Labs (North Liberty, Iowa, USA). […] These clinical isolates were collected from US (n=4), Mexico (n=2), and Italy (n=1). Susceptibility testing was performed by broth microdilution in accordance with the Clinical and Laboratory and Standards Institute (CLSI) guidelines M07-A10 (2015) and the standard operating procedures at JMI laboratories. Minimum inhibitory concentrations (MICs) were based on CLSI criteria (2015). There are no published breakpoints for iclaprim. E. coli, K. pneumoniae, M. catarrhalis, E. faecalis, and S. aureus were tested in cation-adjusted Mueller-Hinton broth (CA-MHB). S. pneumoniae were tested in CA-MHB supplemented with 2.5-5% lysed horse blood, and H. influenza were tested in Haemophilus test medium. Quality control and interpretation of results were performed in accordance with CLSI M100-S26 (2016) methods. QC ranges for iclaprim were those approved by CLSI and published in M100-S26 (2016). Iclaprim and comparator antibiotic MIC results were within the CLSI published ranges against E. coli ATCC 25922, E. faecalis ATCC 29212, E. faecalis ATCC 33186, H. influenzae ATCC 49247, K. pneumoniae ATCC 700603 (ESBL phenotype), S. aureus ATCC 29213, and S. pneumoniae ATCC 49619. Isolates were tested with MIC panels (ThermoFisher Scientific, Cleveland, Ohio, USA) of comparator antibiotics (daptomycin and levofloxacin).
# (§3) Because bovine pulmonary surfactant can introduce cloudiness to the MIC testing media, antimicrobial growth inhibition was also evaluated using the colorimetric metabolic indicator resazurin (Camlab Ltd., Cambridge, UK). […] S. pneumoniae panels were omitted from resazurin analysis because the color change was obscured by the lysed horse blood present in the test medium. Growth inhibition was then evaluated as a visible color change from blue (no growth) to pink (robust growth) and recorded as a MICRZ value.
# (§4) The MICs of iclaprim, levofloxacin, and daptomycin were determined against Gram-positive and Gram-negative isolates.
# (§5) A new vial of bovine pulmonary surfactant (BPS; Survanta®; Abbott Laboratories, Columbus, Ohio) was utilized for each independent experiment. Each vial was mixed thoroughly and a 100 μL aliquot was spread on an agar plate, which was incubated overnight to confirm sterility. […] The concentration of surfactant was expressed in terms of percent volume of Survanta® suspension, which consisted of phospholipid (25 mg/mL) and surfactant proteins (<1 mg/mL) in 0.9% sodium chloride solution (Goerke, 1998). MICs of daptomycin were determined in CAMHB with the Ca^2+ content adjusted to 50 mg/L.
# M. catarrhalis = assay: MIC with/without bovine pulmonary surfactant, M. catarrhalis; assay type: cell-based, Moraxella catarrhalis; details: for MICRZ, Resazurin: +BPS: 2.5% v/v BPS
# Procedure: as §1, §2, §3, §4, §5
# S. aureus = assay: MIC with/without bovine pulmonary surfactant, S. aureus; assay type: cell-based, Staphylococcus aureus; details: for MICRZ, Resazurin: +BPS: 2.5% v/v BPS; for MICRZ, Resazurin: no BPS
# Procedure: as §1, §2, §3, §4, §5
# S. pneumoniae = assay: MIC with/without bovine pulmonary surfactant, S. pneumoniae; assay type: cell-based; details: Streptococcus pneumoniae
# Procedure: as §1, §2, §3, §4, §5
# [1] = system: common Gram-positive and Gram-negative respiratory bacteria; assay: Pulmonary surfactant interaction, overall effect on MIC and MICRZ; assay type: cell-based; details: respiratory Gram-positive strains and clinical isolates; read-out: MIC and MICRZ in the presence of 2.5% BPS
# Procedure: Antibacterial susceptibility testing was measured by JMI Labs (North Liberty, Iowa, USA). […] These clinical isolates were collected from US (n=4), Mexico (n=2), and Italy (n=1). Susceptibility testing was performed by broth microdilution in accordance with the Clinical and Laboratory and Standards Institute (CLSI) guidelines M07-A10 (2015) and the standard operating procedures at JMI laboratories. Minimum inhibitory concentrations (MICs) were based on CLSI criteria (2015). There are no published breakpoints for iclaprim. E. coli, K. pneumoniae, M. catarrhalis, E. faecalis, and S. aureus were tested in cation-adjusted Mueller-Hinton broth (CA-MHB). […]
# Because bovine pulmonary surfactant can introduce cloudiness to the MIC testing media, antimicrobial growth inhibition was also evaluated using the colorimetric metabolic indicator resazurin (Camlab Ltd., Cambridge, UK). […] Growth inhibition was then evaluated as a visible color change from blue (no growth) to pink (robust growth) and recorded as a MICRZ value.
# as §4
# A new vial of bovine pulmonary surfactant (BPS; Survanta®; Abbott Laboratories, Columbus, Ohio) was utilized for each independent experiment. […] MICs of daptomycin were determined in CAMHB with the Ca^2+ content adjusted to 50 mg/L. […]
# [2] = S. aureus Clinical Isolate 825189
structure (smiles),measurement,setting,value
CCCCCCCCCC(=O)N[C@@H](Cc1c[nH]c2ccccc12)C(=O)N[C@H](CC(N)=O)C(=O)N[C@@H](CC(=O)O)C(=O)N[C@@H]1C(=O)NCC(=O)N[C@@H](CCCN)C(=O)N[C@@H](CC(=O)O)C(=O)N[C@H](C)C(=O)N[C@@H](CC(=O)O)C(=O)NCC(=O)N[C@H](CO)C(=O)N[C@@H]([C@H](C)CC(=O)O)C(=O)N[C@@H](CC(=O)c2ccccc2N)C(=O)O[C@@H]1C [Daptomycin],"MICRZ, Resazurin: +BPS",E. faecalis; E. faecalis ATCC 29212,>16 µg/mL
same,"MICRZ, Resazurin",E. faecalis; E. faecalis ATCC 29212,2 µg/mL
same,"MICRZ, Resazurin: +BPS",E. faecalis; E. faecalis ATCC 33186,>16 µg/mL
same,"MICRZ, Resazurin",E. faecalis; E. faecalis ATCC 33186,1 µg/mL
same,MIC,"E. faecalis; ATCC29212, E. faecalis ATCC 29212",2 µg/mL
same,MIC,"E. faecalis; ATCC33186, E. faecalis ATCC 33186",1 µg/mL
same,"MICRZ, Resazurin: +BPS",M. catarrhalis; M. catarrhalis Clinical Isolate 893806,>16 µg/mL
same,"MICRZ, Resazurin","M. catarrhalis; M. catarrhalis Clinical Isolate 893806, no BPS",8 µg/mL
same,"MICRZ, Resazurin: +BPS",M. catarrhalis; M. catarrhalis Clinical Isolate 893807,>16 µg/mL
same,"MICRZ, Resazurin","M. catarrhalis; M. catarrhalis Clinical Isolate 893807, no BPS",8 µg/mL
same,MIC,"M. catarrhalis; Moraxella catarrhalis, M. catarrhalis Clinical Isolate 893806, no BPS",8 µg/mL
same,"MICRZ, Resazurin: +BPS",S. aureus; S. aureus ATCC 29213,>16 µg/mL
same,"MICRZ, Resazurin",S. aureus; S. aureus ATCC 29213,0.5 µg/mL
same,"MICRZ, Resazurin: +BPS",S. aureus; [2],>16 µg/mL
same,"MICRZ, Resazurin",S. aureus; [2],0.25 µg/mL
same,MIC,"S. pneumoniae; ATCC49619, S. pneumoniae ATCC 49619, 2.5% v/v BPS, read-out: MIC, CLSI: +BPS",16 µg/mL
same,MIC,"S. pneumoniae; ATCC49619, S. pneumoniae ATCC 49619, no BPS, read-out: MIC, CLSI",0.25 µg/mL
same,MIC,"S. pneumoniae; S. pneumoniae Clinical Isolate 818757, 2.5% v/v BPS, read-out: MIC, CLSI: +BPS",16 µg/mL
same,MIC,"S. pneumoniae; S. pneumoniae Clinical Isolate 818757, no BPS, read-out: MIC, CLSI",0.25 µg/mL
same,MIC,"S. pneumoniae; S. pneumoniae Clinical Isolate 825175, 2.5% v/v BPS, read-out: MIC, CLSI: +BPS",16 µg/mL
same,MIC,"S. pneumoniae; S. pneumoniae Clinical Isolate 825175, no BPS, read-out: MIC, CLSI",0.25 µg/mL
same,MIC,[1],> 16 µg/mL
